{
  "source": "ChEMBL document CHEMBL6134923",
  "about": "“Novel Tricyclic Compounds as GSK3 Inhibitors” (ACS Med Chem Lett, 2025)",
  "key": {"[1]": {"target": "Glycogen synthase kinase-3 beta (Homo sapiens, UniProt P49841)", "sequence (P49841 whole entry)": "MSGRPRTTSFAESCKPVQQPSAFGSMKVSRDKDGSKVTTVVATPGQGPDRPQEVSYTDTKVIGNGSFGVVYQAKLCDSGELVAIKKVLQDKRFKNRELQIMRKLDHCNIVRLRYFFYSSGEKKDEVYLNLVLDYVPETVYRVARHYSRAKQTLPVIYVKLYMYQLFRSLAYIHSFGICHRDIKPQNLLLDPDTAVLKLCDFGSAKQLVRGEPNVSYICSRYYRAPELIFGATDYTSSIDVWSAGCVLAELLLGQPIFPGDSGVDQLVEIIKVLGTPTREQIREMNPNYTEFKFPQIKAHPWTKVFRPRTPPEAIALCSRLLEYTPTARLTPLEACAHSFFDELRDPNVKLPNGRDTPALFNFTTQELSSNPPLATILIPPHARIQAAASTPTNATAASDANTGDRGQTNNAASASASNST", "test": "Inhibition of N-terminal GST-tagged full-length recombinant human GSK-3beta extracted from baculovirus infected Sf9 cells using biotinylated-phosphorylated glycogen synthase incubated for 100 mins in presence of ATP by TR-FRET assay"}, "[2]": {"target": "Glycogen synthase kinase-3 alpha (Homo sapiens, UniProt P49840)", "sequence (P49840 whole entry)": "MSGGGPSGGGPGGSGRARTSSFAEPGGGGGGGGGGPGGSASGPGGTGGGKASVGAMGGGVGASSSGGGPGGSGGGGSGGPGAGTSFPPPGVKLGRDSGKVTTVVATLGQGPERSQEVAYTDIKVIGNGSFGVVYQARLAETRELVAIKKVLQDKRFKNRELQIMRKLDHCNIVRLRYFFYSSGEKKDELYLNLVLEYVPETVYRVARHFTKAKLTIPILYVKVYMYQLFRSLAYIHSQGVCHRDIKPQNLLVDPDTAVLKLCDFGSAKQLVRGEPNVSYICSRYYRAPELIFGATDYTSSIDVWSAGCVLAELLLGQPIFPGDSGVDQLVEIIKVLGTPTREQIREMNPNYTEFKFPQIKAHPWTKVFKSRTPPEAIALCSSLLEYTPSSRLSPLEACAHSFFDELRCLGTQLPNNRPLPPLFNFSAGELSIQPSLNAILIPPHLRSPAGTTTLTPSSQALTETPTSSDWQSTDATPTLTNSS", "test": "Inhibition of N-terminal GST-tagged full-length recombinant human GSK-3alpha extracted from baculovirus infected Sf9 cells using biotinylated-phosphorylated glycogen synthase incubated for 100 mins in presence of ATP by TR-FRET assay"}},
  "data": [
    {"compound": "CC[C@]1(c2cccc(OC(C)C)c2)C2=C(CC(C)(C)CC2=O)Nc2n[nH]c(C(F)(F)F)c21", "values": [
      {"measurement": "IC50", "setting": "[1]", "value": "≤ 100", "unit": "nM"},
      {"measurement": "IC50", "setting": "[2]", "value": "≤ 100", "unit": "nM"}
    ]},
    {"compound": "CCC1(c2cccc(N3CC4CCC(C4)C3)c2)C2=C(CC(C)(C)CC2=O)Nc2n[nH]cc21", "note": "(configuration not stated)", "values": [
      {"measurement": "IC50", "setting": "[1]", "value": "> 1000", "unit": "nM"},
      {"measurement": "IC50", "setting": "[2]", "value": "> 100", "unit": "nM"}
    ]},
    {"compound": "CC[C@@]1(c2cccc(S(=O)(=O)C3CC3)c2)C2=C(CC(C)(C)CC2=O)Nc2n[nH]c(C(F)(F)F)c21", "values": [
      {"measurement": "IC50", "setting": "[1]", "value": "≤ 100", "unit": "nM"},
      {"measurement": "IC50", "setting": "[2]", "value": "≤ 100", "unit": "nM"}
    ]},
    {"compound": "CC[C@@]1(c2cccc(-c3cc(C)ncc3C)c2)C2=C(CC(C)(C)CC2=O)Nc2n[nH]c(C(F)(F)F)c21", "values": [
      {"measurement": "IC50", "setting": "[1]", "value": "> 100", "unit": "nM"},
      {"measurement": "IC50", "setting": "[2]", "value": "> 100", "unit": "nM"}
    ]},
    {"compound": "CC[C@@]1(c2cccc(-c3cncn3C)c2)C2=C(CC(C)(C)NC2=O)Nc2n[nH]c(C(F)(F)F)c21", "values": [
      {"measurement": "IC50", "setting": "[1]", "value": "≤ 100", "unit": "nM"},
      {"measurement": "IC50", "setting": "[2]", "value": "≤ 100", "unit": "nM"}
    ]},
    {"compound": "CC[C@@]1(c2cccc(C(F)(F)F)c2)C2=C(Nc3n[nH]cc31)[C@H](F)C(C)(C)CC2=O", "values": [
      {"measurement": "IC50", "setting": "[1]", "value": "≤ 100", "unit": "nM"},
      {"measurement": "IC50", "setting": "[2]", "value": "≤ 100", "unit": "nM"}
    ]}
  ]
}
